Legend:
Assay type in all cases: cell-based, human
[1] = test system: HeLa cells; assay: Annexin V apoptosis assay
Method: To further analyze the cytotoxicity mechanisms, annexin V was used to determine whether VNK-572/cisplatin exerts an anti-cancer activity through apoptosis. The Annexin V assay was performed following the established procedure. The steps included treating the cells with the complex for 24, 48, and 72 h in 6-well plates and incubating at 37°C. The cells were then rinsed with PBS, trypsinized, and neutralized using culture media. The cells were then spun in the centrifuge at 2500 RPM for 3 min, and the supernatant was discarded. The cell pellet was then washed first with PBS and then with ×1 binding buffer. The cells were then suspended in approximately 1 mL of binding buffer (1–5 million cells), and approximately 100 ul of this suspension was stained with 5 μL of annexin V-APC dye for 15 min. The cells were then washed with binding buffer and resuspended in 200 μL of binding buffer before being stained with 5 ul of propidium iodide. The cells were then analyzed using a flow cytometer within 4 h.

[2] = test system: DU145 cells; assay: cell cycle analysis
Method: (§1) The cell cycle of cervical HeLa and prostate DU145 cancer cells was studied after treatment with VNK-572 and cisplatin, respectively (Figure 3). VNK-572 and cisplatin both reduced the G2 population after 72 h compared to control (e.g., 16%–11% in Hela (p = 0.06) and from 17% to 2% in the DU145 cell line (p = 0.003) for VNK-572) (Figure 3A). […] The DU145 cells saw a decrease in both phases following 72 h of treatment—from 68% to 40% and from 11% to 5% for the G1 and S phases, respectively (Figure 3A).

[3] = test system: HeLa cells; assay: cell cycle analysis
Method: as §1

Q: `F[P-](F)(F)(F)(F)F.F[P-](F)(F)(F)(F)F.[Ru+2].c1cnc2c(c1)c1ncc3c(c1c1cccnc12)CCCC3.c1cnc2c(c1)ccc1cccnc12.c1cnc2c(c1)ccc1cccnc12` [VNK-572] was tested. Which “Q2 (propidium iodide and annexin V APC-stained cells), late-stage apoptosis” value ([1]; 72 h of treatment, control 2%) did it give?
A: 11%

Q: And the “Q4 (annexin V APC), early apoptosis” value ([1]; 72 h of treatment, control 14% (VNK-572), 13% (cisplatin))?
A: 26%

Q: What about the “Q1 (necrosis)” value ([1]; after 72 h of treatment) of the same compound?
A: < 6%

Q: What about the S phase population ([2]; DU145, 72 h of treatment, control 11%) of the same compound?
A: 5%

Q: What about the G1 phase population ([2]; DU145, 72 h of treatment, control 68%) of the same compound?
A: 40%

Q: And the sub-G1 population ([2]; DU145, after 72 h, control 1%)?
A: 51%

Q: What about the G2 population ([2]; DU145, after 72 h, control 17%) of the same compound?
A: 2%

Q: And the “changes in G1 / S phases” value [3]?
A: only slight changes

Q: What about the sub-G1 population ([3]; 72 h of treatment, control 5% (VNK-572), 6% (cisplatin)) of the same compound?
A: 12%

Q: What about the G2 population ([3]; after 72 h, control 16%) of the same compound?
A: 11%
